Patent publication US20260007613A1, “LONG-ACTING LOW-TOXICITY NOVEL CATIONIC LIPID COMPOUNDS AND COMPOSITION THEREOF” (BEIJING YOUCAREKECHUANG PHARMACEUTICAL TECHNOLOGY CO., LTD., priority 2023, published 2026)

Columns and labels:
293T cells [1] = assay: Fluorescent detection of Fluc-mRNA (cell transfection efficiency of LNP formulations); type: cell-based; conditions: for Multiples (YK-305): RLU of YK-305 / RLU of the lipid of the line; for Multiples (YK-310): RLU of YK-310 / RLU of the lipid of the line; for Multiples (YK-312): RLU of YK-312 / RLU of the lipid of the line; for Multiples (YK-318): RLU of YK-318 / RLU of the lipid of the line; for Multiples (YK-318) / Multiples (YK-319): Tables 5, 7, 11; for Multiples (YK-319): RLU of YK-319 / RLU of the lipid of the line; for Ratio relative to SM-102: RLU of the lipid / RLU of SM-102, times that of SM-102; for Relative light unit (RLU): LNP formulation of Fluc-mRNA, 96-well plate, 24 hours
Method: (§1) Cell recovery and passage: 293T cells were recovered, cultured in a culture dish, and passaged to the required number of cells.
(§2) Seeding plate: The cells in the culture dish were digested and counted. Cells were spread in a 96-well plate at 10,000 cells per well and in a 12-well plate at 150,000 cells per well. Cells were cultured overnight until the cells adhered to the wall.
(§3) Cell recovery and passage: the method was the same as in Example 3.
(§4) Seeding plate: the method was the same as in Example 3.
An LNP formulation containing […] of Fluc-mRNA (the carrier components of the LNP formulation were cationic lipid, neutral lipid, structured lipid and polymer-conjugated lipid with a molar ratio of 49:10:39.5:1.5, wherein the cationic lipid was listed in Table 1) was added to the cell culture medium of a 96-well plate, and further incubated for 24 hours. The corresponding reagent was added according to the instructions of the […] Luciferase Assay Kit, and the fluorescence expression intensity of each well was detected by an IVIS fluorescence detection system. This test verified the transfection efficiencies of LNP formulations in cells, see Tables 4-7 for specific test results.

liver = assay: Distribution of liposomes in mice: protein expression in the liver (live imaging); type: in vivo; conditions: at 6 h, intramuscular injection
Method: (§5) The LNP formulation containing […] Fluc-mRNA was injected intramuscularly into female BALB/C mice aged 4 to 6 weeks old and weighed 17 to 19 g, and the mice were intraperitoneally injected with fluorescent imaging substrate at specific time points after administration (6 h, 24 h, 48 h and 7 d), where the mice were free to move for 5 minutes, and then the average radiation intensity (corresponding to fluorescence expression intensity) of the protein expression of the mRNA carried by the LNP in the mice was detected by the IVIS Spectrum small animal live imaging device.
At 24 h, the LNP formulations prepared from all compounds had been metabolized in the liver and had no protein expression.

293T cells [2] = assay: Cell survival rate determination (CCK-8); type: cell-based; conditions: LNP formulation of Fluc-mRNA, 24 hours, CCK-8
Method: as §1, §2, §3, §4
An LNP formulation containing […] of Fluc-mRNA (the carrier components of the LNP formulation were cationic lipid, neutral lipid, structured lipid and polymer-conjugated lipid with a molar ratio of 49:10:39.5:1.5, wherein the cationic lipid was listed in Table 1) and the formulation of Lipofectamine 3000 were added to the cell culture medium of a 96-well plate, and further cultivated for 24 hours. 10 μL of CCK-8 solution was then added to each well, and the culture plate was incubated in an incubator for 1 hour. The absorbance at 450 nm was measured by a microplate reader.
Cell survival rate can represent the toxicity of cationic lipids to cells. The higher the cell survival rate, the lower the toxicity to cells.

female BALB/C mice = assay: Live imaging in mice: protein expression of Fluc-mRNA delivered by LNP formulations; type: in vivo
Method: In addition, the protein expression and duration of mRNA in mice delivered by the cationic lipid delivery carriers designed were also verified.
as §5

[3] = Particle size and polydispersity index (PDI) of lipid nanoparticles by dynamic light scattering; type: physicochemical; conditions: LNP formulation prepared from the cationic lipid, 25° C.
Method: The particle size and polydispersity index (PDI) were determined by dynamic light scattering using Malvern laser particle size analyzer.
10 μL of the liposome solution was weighed, diluted to 1 mL with RNase-free deionized water, and added to the sample pool. Each sample was measured in triplicate. The measurement conditions were: […] scattering angle, and 25° C.

[4] = 6 h after intramuscular injection
[5] = 24 h after intramuscular injection
[6] = 48 h after intramuscular injection
[7] = 7 d after intramuscular injection

With `CCCCCCCCC(CCCCCC)C(=O)OCCCCCCN(CCCCO)CCCCCCOC(=O)C(CCCCCC)CCCCCCCC` (centres unmarked) [ALC-0315, reference compound] the “Multiples (YK-305)” value (293T cells [1]) was 13.48, the “Multiples (YK-310)” value (293T cells [1]) was 12.69 and the “Multiples (YK-312)” value (293T cells [1]) was 9.91. The “Multiples (YK-318)” value (293T cells [1]) was 5.50, the “Multiples (YK-319)” value (293T cells [1]) was 12.03 and the “Ratio relative to SM-102” value (293T cells [1]) was 1.27. For the same molecule, the “protein expression in the liver” value (liver) was “had protein expression in the liver”, the “Cell survival rate (%)” value (293T cells [2]) was 51.03% and the average radiation intensity (female BALB/C mice; [4]) was 863760. For the same molecule, the average radiation intensity (female BALB/C mice; [5]) was 190480, the average radiation intensity (female BALB/C mice; [6]) was 39810 and the average radiation intensity (female BALB/C mice; [7]) was 7047. The “PDI (%)” value [3] was 21.2% and the “Particle size (nm)” value [3] was 231 nm.
For `CCCCCCCCC(CCCCCCCC)OC(=O)CCCCCCCN(CCO)CCCCCCCC(=O)OCCC(CCCCCC)CCCCCC` [Compound 21, reference compound], the “Relative light unit (RLU)” value (293T cells [1]) was 1432170 RLU, the “Multiples (YK-305)” value (293T cells [1]) was 19.14 and the “Multiples (YK-310)” value (293T cells [1]) was 18.01. The “Multiples (YK-312)” value (293T cells [1]) was 14.07, the “Multiples (YK-318)” value (293T cells [1]) was 7.81 and the “Multiples (YK-319)” value (293T cells [1]) was 17.08. The “Ratio relative to SM-102” value (293T cells [1]) was 0.89, the “protein expression in the liver” value (liver) was “had protein expression in the liver” and the “Cell survival rate (%)” value (293T cells [2]) was 70.21%. For the same molecule, the average radiation intensity (female BALB/C mice; [4]) was 610340, the average radiation intensity (female BALB/C mice; [5]) was 109840 and the average radiation intensity (female BALB/C mice; [6]) was 30980. The average radiation intensity (female BALB/C mice; [7]) was 6445.
In the case of `CCCCCCC(CCCCCC)CCOC(=O)CCCCCCCN(CCO)CCCCCCCC(=O)OCCC(CCCCCC)CCCCCC` [Compound 23, bis(3-hexylnonyl)-8,8′-((2-hydroxyethyl)azanediyl)dioctanoate, reference compound], the “Relative light unit (RLU)” value (293T cells [1]) is reported as 1356022 RLU, the “Multiples (YK-305)” value (293T cells [1]) is reported as 20.21 and the “Multiples (YK-310)” value (293T cells [1]) is reported as 19.02. The “Multiples (YK-312)” value (293T cells [1]) was 14.86, the “Multiples (YK-318)” value (293T cells [1]) was 8.25 and the “Multiples (YK-319)” value (293T cells [1]) was 18.04. The “Ratio relative to SM-102” value (293T cells [1]) was 0.85, the “protein expression in the liver” value (liver) was “had protein expression in the liver” and the “Cell survival rate (%)” value (293T cells [2]) was 71.50%. For the same molecule, the average radiation intensity (female BALB/C mice; [4]) was 589400, the average radiation intensity (female BALB/C mice; [5]) was 104530 and the average radiation intensity (female BALB/C mice; [6]) was 33125. For the same molecule, the average radiation intensity (female BALB/C mice; [7]) was 6240, the “PDI (%)” value [3] was 15.2% and the “Particle size (nm)” value [3] was 147 nm.
With `CCCCCCCCCCCCC(O)CN(C)CCCCCC(=O)OCC(CCCCCC)CCCCCCCC` (centres unmarked) [HHMA, reference compound] the “Relative light unit (RLU)” value (293T cells [1]) was 2006110 RLU, the “Multiples (YK-305)” value (293T cells [1]) was 13.66 and the “Multiples (YK-310)” value (293T cells [1]) was 12.86. The “Multiples (YK-312)” value (293T cells [1]) was 10.04, the “Multiples (YK-318)” value (293T cells [1]) was 5.58 and the “Multiples (YK-319)” value (293T cells [1]) was 12.20. The “Ratio relative to SM-102” value (293T cells [1]) was 1.25, the “protein expression in the liver” value (liver) was “had protein expression in the liver” and the “Cell survival rate (%)” value (293T cells [2]) was 66.47%. For the same molecule, the average radiation intensity (female BALB/C mice; [4]) was 651020, the average radiation intensity (female BALB/C mice; [5]) was 119940 and the average radiation intensity (female BALB/C mice; [6]) was 32557. For the same molecule, the average radiation intensity (female BALB/C mice; [7]) was 5871, the “PDI (%)” value [3] was 19.3% and the “Particle size (nm)” value [3] was 150 nm.
In the case of `CCCCCCCCCCCOC(=O)CCCCCN(CCO)CCCCCCCC(=O)OC(CCCCCCCC)CCCCCCCC` [SM-102, reference compound], the “Multiples (YK-310)” value (293T cells [1]) is reported as 16.08, the “Multiples (YK-312)” value (293T cells [1]) is reported as 12.56 and the “Multiples (YK-318)” value (293T cells [1]) is reported as 6.98. For the same molecule, the “Multiples (YK-319)” value (293T cells [1]) was 15.25, the “Ratio relative to SM-102” value (293T cells [1]) was 1.00 and the “protein expression in the liver” value (liver) was “had protein expression in the liver”. The “Cell survival rate (%)” value (293T cells [2]) was 69.45%, the average radiation intensity (female BALB/C mice; [4]) was 701230 and the “PDI (%)” value [3] was 28.2%. The “Particle size (nm)” value [3] was 177 nm.
For `CCCCCCCCC(CCCCCCCC)OC(=O)CCCCCN(CCCCCC(=O)OC(CCCCCCCC)CCCCCCCC)C[C@H](O)CN(CC)CCO` [YK-313], the “Relative light unit (RLU)” value (293T cells [1]) was 866536 RLU, the “Multiples (YK-305)” value (293T cells [1]) was 31.63 and the “Multiples (YK-310)” value (293T cells [1]) was 29.77. For the same molecule, the “Multiples (YK-312)” value (293T cells [1]) was 23.25, the “Ratio relative to SM-102” value (293T cells [1]) was 0.54 and the “protein expression in the liver” value (liver) was “no protein expression in the liver”. The “Cell survival rate (%)” value (293T cells [2]) was 68.93%, the average radiation intensity (female BALB/C mice; [4]) was 442180 and the average radiation intensity (female BALB/C mice; [5]) was 104430. For the same molecule, the average radiation intensity (female BALB/C mice; [6]) was 25560, the average radiation intensity (female BALB/C mice; [7]) was 3235 and the “PDI (%)” value [3] was 17.7%. The “Particle size (nm)” value [3] was 241 nm.
